Results on eleven compounds are retold here after ChEMBL document CHEMBL4382269, “Discovery of Potent, Efficient, and Selective Inhibitors of Phosphoinositide 3-Kinase δ through a Deconstruction and Regrowth Approach” (J Med Chem, 2018).

Test [1] addresses Phosphatidylinositol 4,5-bisphosphate 3-kinase catalytic subunit beta isoform (Homo sapiens, UniProt P42338). The experiment in a line: Inhibition of PI3Kbeta (unknown origin) using PIP2 as substrate preincubated for 15 mins followed by substrate addition measured after 60 mins by HTRF method. Background: TR-FRET usually uses a lanthanide donor and a delayed reading to cut background.

The target in test [2] is Inhibitor of nuclear factor kappa-B kinase subunit beta (Homo sapiens, UniProt O14920). The experiment in a line: Inhibition of IKK2 (unknown origin).
In test [3] the target is T1, Phosphatidylinositol 4,5-bisphosphate 3-kinase catalytic subunit delta isoform (Homo sapiens, UniProt O00329).
T1 sequence (O00329 whole entry): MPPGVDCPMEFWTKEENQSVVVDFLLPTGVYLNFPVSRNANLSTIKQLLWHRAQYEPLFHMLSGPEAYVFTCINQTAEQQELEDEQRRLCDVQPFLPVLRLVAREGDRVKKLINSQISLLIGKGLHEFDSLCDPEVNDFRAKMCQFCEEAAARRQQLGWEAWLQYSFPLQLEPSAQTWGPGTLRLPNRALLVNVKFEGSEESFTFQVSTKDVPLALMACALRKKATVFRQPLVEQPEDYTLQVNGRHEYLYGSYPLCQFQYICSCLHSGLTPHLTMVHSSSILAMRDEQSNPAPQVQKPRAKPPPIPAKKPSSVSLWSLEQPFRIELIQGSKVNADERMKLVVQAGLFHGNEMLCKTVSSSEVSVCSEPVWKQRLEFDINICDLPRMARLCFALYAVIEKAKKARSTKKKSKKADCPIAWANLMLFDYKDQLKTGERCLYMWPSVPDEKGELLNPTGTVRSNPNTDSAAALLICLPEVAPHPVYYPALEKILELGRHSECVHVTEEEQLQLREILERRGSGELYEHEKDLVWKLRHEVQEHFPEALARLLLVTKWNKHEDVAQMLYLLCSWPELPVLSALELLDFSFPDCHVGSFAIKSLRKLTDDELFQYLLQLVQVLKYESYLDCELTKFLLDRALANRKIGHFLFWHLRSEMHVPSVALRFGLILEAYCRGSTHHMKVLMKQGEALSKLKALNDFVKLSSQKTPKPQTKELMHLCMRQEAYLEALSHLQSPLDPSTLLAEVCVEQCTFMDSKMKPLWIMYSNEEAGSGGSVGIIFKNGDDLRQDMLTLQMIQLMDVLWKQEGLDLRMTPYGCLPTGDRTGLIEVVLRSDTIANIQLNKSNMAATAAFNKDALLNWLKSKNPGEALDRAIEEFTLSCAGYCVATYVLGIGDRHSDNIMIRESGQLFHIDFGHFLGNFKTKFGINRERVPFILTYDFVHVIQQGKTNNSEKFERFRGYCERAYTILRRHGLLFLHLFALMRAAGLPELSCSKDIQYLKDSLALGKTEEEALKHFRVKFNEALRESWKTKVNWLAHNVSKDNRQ
The test is described as follows: Inhibition of PI3Kdelta (unknown origin) using PIP2 as substrate preincubated for 15 mins followed by substrate addition measured after 60 mins by HTRF method.

Test [4] addresses Tyrosine-protein kinase BTK (Homo sapiens, UniProt Q06187). The test is described as follows: Inhibition of BTK (unknown origin).
Test [5] concerns the target Mitogen-activated protein kinase kinase kinase 5 (Homo sapiens, UniProt Q99683). The experiment in a line: Inhibition of ASK1 (unknown origin).
In test [6] the target is Epidermal growth factor receptor (Homo sapiens, UniProt P00533). The experiment in a line: Inhibition of EGFR (unknown origin).
Test [7] concerns the target Phosphatidylinositol 4,5-bisphosphate 3-kinase catalytic subunit alpha isoform (Homo sapiens, UniProt P42336). The test is described as follows: Inhibition of PI3Kalpha (unknown origin) using PIP2 as substrate preincubated for 15 mins followed by substrate addition measured after 60 mins by HTRF method.
Test [8] addresses Tyrosine-protein kinase SYK (Homo sapiens, UniProt P43405). The test is described as follows: Inhibition of SYK (unknown origin).
In another test the target is Aurora kinase B (Homo sapiens, UniProt Q96GD4). The test is described as follows: Inhibition of Aurora B (unknown origin).
Test [9] has as its target Rho-associated protein kinase 1 (Homo sapiens, UniProt Q13464). The test is described as follows: Inhibition of ROCK1 (unknown origin).
The target in test [10] is Tyrosine-protein kinase Lck (Homo sapiens, UniProt P06239). The experiment in a line: Inhibition of LCK (unknown origin).
Test [11] has as its target Phosphatidylinositol 4,5-bisphosphate 3-kinase catalytic subunit gamma isoform (Homo sapiens, UniProt P48736). The test is described as follows: Inhibition of PI3Kgamma (unknown origin) using PIP2 as substrate preincubated for 15 mins followed by substrate addition measured after 60 mins by HTRF method.
The target in test [12] is Mitogen-activated protein kinase 10 (Homo sapiens, UniProt P53779). The experiment in a line: Inhibition of JNK3 (unknown origin).
The target in test [13] is Tyrosine-protein kinase JAK3 (Homo sapiens, UniProt P52333). The test is described as follows: Inhibition of JAK3 (unknown origin).
In test [14] the target is Mitogen-activated protein kinase 14 (Homo sapiens, UniProt Q16539). The test is described as follows: Inhibition of p38alpha (unknown origin).
Test [15] deals with Tyrosine-protein kinase JAK2 (Homo sapiens, UniProt O60674). The experiment in a line: Inhibition of JAK2 (unknown origin).
Test [16] has as its target Inhibitor of nuclear factor kappa-B kinase subunit alpha (Homo sapiens, UniProt O15111). The experiment in a line: Inhibition of IKK1 (unknown origin).
Test [17] addresses Glycogen synthase kinase-3 beta (Homo sapiens, UniProt P49841). The test is described as follows: Inhibition of GSK3B (unknown origin).
The target of test [18] is Tyrosine-protein kinase ITK/TSK (Homo sapiens, UniProt Q08881). The test is described as follows: Inhibition of ITK (unknown origin).
For test [19], the target named is Leucine-rich repeat serine/threonine-protein kinase 2 (Homo sapiens, UniProt Q5S007). The experiment in a line: Inhibition of LRRK2 (unknown origin).

Phosphatidylinositol 4,5-bisphosphate 3-kinase catalytic subunit alpha isoform, sequence (P42336 whole entry, canonical isoform): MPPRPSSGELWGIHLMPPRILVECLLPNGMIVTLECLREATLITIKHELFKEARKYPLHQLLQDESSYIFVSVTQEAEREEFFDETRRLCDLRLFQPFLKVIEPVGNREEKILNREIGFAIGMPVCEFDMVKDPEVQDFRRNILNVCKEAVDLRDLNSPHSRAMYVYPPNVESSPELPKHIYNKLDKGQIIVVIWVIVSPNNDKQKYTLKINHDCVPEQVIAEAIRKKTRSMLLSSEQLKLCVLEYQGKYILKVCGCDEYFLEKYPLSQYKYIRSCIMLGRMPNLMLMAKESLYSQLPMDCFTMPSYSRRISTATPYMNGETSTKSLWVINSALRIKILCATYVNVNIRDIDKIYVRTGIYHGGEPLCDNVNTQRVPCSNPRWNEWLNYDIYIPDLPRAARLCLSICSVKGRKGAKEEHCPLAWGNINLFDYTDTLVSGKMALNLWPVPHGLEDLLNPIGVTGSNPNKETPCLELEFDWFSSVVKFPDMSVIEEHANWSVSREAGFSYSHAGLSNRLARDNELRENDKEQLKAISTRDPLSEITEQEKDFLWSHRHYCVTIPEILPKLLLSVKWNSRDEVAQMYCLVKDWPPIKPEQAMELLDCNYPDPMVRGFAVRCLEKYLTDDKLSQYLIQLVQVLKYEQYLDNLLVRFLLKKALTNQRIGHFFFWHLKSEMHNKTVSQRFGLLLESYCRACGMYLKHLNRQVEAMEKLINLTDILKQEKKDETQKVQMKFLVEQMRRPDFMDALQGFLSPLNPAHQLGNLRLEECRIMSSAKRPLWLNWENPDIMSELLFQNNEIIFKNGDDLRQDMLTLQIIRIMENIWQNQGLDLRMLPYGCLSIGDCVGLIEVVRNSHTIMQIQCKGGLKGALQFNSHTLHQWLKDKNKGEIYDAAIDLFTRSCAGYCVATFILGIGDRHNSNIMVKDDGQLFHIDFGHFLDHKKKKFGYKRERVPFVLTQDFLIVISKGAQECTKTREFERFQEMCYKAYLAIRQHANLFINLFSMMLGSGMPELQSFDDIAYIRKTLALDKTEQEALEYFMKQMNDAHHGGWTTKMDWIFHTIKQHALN
Phosphatidylinositol 4,5-bisphosphate 3-kinase catalytic subunit beta isoform, sequence (P42338 whole entry, canonical isoform): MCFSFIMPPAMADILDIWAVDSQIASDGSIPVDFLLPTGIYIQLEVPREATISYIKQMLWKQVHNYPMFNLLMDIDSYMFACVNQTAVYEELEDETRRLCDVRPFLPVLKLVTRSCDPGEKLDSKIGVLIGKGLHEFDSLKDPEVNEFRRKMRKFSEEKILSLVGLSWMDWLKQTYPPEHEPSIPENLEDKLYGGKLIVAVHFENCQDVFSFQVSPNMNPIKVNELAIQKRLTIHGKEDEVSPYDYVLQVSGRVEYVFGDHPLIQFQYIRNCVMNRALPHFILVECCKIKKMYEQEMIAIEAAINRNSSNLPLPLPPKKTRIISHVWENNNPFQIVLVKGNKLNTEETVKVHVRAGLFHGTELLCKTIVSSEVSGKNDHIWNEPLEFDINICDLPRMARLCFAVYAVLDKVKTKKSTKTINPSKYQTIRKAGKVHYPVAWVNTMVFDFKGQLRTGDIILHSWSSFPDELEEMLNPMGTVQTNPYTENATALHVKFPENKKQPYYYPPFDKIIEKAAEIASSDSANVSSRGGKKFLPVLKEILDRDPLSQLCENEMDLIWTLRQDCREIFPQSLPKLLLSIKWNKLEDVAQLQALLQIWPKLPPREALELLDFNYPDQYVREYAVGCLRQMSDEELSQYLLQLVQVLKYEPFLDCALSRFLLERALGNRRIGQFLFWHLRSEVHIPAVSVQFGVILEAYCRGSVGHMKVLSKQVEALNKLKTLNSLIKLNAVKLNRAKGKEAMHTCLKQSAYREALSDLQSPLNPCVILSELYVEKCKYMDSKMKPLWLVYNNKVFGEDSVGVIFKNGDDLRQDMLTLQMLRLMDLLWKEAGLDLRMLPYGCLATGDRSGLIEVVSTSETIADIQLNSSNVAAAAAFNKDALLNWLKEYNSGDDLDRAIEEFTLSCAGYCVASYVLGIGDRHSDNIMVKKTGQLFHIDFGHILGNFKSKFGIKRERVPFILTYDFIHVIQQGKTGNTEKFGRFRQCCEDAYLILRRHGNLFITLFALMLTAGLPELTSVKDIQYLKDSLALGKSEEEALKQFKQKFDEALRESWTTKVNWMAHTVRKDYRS
Phosphatidylinositol 4,5-bisphosphate 3-kinase catalytic subunit gamma isoform, sequence (P48736 whole entry, canonical isoform): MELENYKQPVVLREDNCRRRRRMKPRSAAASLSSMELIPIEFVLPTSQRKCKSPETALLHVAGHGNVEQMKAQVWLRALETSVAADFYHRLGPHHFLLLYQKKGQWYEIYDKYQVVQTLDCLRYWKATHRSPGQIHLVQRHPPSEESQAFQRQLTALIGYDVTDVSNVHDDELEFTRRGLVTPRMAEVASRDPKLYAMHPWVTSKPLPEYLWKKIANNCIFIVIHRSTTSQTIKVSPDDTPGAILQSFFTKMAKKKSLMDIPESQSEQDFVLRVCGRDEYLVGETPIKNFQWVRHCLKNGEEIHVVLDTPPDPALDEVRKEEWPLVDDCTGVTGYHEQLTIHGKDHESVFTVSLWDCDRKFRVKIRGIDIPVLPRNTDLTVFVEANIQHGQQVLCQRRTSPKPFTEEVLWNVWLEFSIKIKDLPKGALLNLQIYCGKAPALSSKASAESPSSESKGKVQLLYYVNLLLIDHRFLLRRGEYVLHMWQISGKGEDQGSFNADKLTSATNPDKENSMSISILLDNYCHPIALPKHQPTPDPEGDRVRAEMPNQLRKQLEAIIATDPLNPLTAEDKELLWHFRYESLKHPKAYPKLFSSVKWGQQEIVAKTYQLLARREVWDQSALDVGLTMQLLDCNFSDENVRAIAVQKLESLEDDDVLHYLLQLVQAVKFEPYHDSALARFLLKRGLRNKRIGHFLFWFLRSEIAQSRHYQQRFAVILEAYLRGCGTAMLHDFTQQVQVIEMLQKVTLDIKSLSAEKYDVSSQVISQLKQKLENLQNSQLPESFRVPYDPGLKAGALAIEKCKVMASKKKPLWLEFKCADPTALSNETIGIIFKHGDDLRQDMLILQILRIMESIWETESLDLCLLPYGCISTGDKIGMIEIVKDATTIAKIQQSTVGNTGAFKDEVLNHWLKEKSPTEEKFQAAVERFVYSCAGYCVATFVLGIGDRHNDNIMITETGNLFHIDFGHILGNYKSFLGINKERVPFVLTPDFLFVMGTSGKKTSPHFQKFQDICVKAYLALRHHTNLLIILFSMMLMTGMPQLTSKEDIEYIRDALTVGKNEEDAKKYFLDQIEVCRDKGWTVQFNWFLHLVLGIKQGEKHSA
Glycogen synthase kinase-3 beta, sequence (P49841 whole entry): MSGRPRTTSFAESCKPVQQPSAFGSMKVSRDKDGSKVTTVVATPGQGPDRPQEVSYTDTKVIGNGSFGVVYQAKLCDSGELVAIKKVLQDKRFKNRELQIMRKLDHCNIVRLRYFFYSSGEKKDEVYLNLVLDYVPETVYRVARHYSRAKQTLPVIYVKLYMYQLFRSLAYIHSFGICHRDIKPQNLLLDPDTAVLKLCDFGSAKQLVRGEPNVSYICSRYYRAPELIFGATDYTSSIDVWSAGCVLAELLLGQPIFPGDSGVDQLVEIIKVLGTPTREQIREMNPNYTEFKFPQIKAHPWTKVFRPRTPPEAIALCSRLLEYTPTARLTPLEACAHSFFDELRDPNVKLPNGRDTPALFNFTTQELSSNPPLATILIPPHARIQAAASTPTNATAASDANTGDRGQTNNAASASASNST
Mitogen-activated protein kinase 10, sequence (P53779 whole entry): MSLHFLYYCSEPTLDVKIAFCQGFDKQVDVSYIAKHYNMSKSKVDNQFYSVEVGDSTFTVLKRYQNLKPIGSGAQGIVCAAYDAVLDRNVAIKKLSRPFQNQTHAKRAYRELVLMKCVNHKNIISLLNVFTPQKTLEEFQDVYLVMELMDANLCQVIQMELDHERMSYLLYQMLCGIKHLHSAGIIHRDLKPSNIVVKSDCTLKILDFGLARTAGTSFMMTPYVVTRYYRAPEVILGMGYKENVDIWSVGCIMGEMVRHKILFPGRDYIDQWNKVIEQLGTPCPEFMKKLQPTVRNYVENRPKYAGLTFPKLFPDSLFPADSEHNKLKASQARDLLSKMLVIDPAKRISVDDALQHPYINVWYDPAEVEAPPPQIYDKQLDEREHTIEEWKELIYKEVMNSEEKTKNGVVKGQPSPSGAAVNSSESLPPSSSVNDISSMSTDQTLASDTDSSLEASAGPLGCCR
Aurora kinase B, sequence (Q96GD4 whole entry): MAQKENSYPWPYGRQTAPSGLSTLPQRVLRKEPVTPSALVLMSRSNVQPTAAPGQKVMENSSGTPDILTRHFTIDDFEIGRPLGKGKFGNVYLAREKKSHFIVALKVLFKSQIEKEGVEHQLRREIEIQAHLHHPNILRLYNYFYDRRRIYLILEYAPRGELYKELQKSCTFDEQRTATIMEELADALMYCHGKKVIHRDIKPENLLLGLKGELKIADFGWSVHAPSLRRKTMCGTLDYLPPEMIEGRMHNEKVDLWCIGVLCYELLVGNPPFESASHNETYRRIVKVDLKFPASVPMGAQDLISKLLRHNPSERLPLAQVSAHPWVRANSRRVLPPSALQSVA
Tyrosine-protein kinase Lck, sequence (P06239 whole entry, canonical isoform): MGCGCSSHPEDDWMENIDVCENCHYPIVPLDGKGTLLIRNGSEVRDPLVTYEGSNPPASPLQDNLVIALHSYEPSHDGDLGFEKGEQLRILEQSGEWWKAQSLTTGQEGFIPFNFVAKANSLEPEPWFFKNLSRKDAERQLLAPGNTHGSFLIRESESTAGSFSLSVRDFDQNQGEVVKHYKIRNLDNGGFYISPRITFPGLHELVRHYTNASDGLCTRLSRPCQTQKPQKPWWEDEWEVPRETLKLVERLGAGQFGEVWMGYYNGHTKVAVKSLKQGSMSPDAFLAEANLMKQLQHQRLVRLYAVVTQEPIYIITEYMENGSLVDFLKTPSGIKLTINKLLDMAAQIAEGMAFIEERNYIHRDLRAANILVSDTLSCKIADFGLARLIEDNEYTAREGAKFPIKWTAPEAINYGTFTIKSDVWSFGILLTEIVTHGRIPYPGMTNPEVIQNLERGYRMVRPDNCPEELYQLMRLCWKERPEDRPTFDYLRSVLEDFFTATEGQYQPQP

The IC50 is the concentration that gives 50% inhibition. Regarding `CS(=O)(=O)Nc1cc(-c2ccncc2)cnc1Cl`, the IC50 in test [1] is 0.794 µM; in test [2], over 10 µM; in [3], 0.251 µM; in test [4] it was over 10 µM; in test [5] it was over 10 µM; in [6], over 10 µM. Further, the IC50 in test [7] was 6.31 µM; in test [8], over 10 µM; on Aurora kinase B it was over 10 µM; in test [9], over 10 µM; in test [10] it was over 10 µM; in test [11], 3.98 µM. For the same compound, the IC50 in test [12], in test [13], in test [14], in test [15], in [16] and in test [17] was over 10 µM in each case. Besides, the IC50 in test [18] and in [19] was over 10 µM throughout.
For `CS(=O)(=O)Nc1cc(-c2cnc(N)nc2)cnc1Cl`, the half-maximal inhibitory concentration (IC50) in test [1] is 0.158 µM; in test [3] it was 0.126 µM; in test [7], 1.58 µM; in [11], 0.2 µM.
For `CS(=O)(=O)Nc1cc(-c2ccc3ccncc3c2)cnc1Cl` the same measures were 2.51 µM, 0.158 µM, 2.51 µM and 0.794 µM.
In the same order, the values of `c1cc(-c2ccncc2)c2cc[nH]c2c1` are over 50.1 µM, 79.4 µM, over 50.1 µM and over 50.1 µM.
For `CS(=O)(=O)Nc1cc(-c2ccc3cn[nH]c3c2)cnc1Cl` the same measures were 3.98 µM, 0.398 µM, 6.31 µM and 2.51 µM.
With `O=S(=O)(Nc1cc(C2=CCOCC2)cnc1Cl)c1ccccc1`, the 50% inhibitory concentration (IC50) is 0.126 µM in test [1], 0.01 µM in test [3], 0.501 µM in test [7] and 0.501 µM in [11].
With `c1cc(-c2ccc3cn[nH]c3c2)c2cc[nH]c2c1`, the IC50 was 25.1 µM in test [1], 7.94 µM in test [3], over 158 µM in [7] and over 158 µM in [11].
Turning to `O=S(=O)(Nc1cc(-c2ccccc2)cnc1Cl)c1ccccc1`, the IC50 in test [1] is 15.8 µM; in test [3], 1 µM; in [7] it was 31.6 µM; in test [11], 12.6 µM.
`COc1ncc(-c2cc(-c3ncc(CN4C[C@@H](C)O[C@@H](C)C4)o3)c3cn[nH]c3c2)cc1NS(C)(=O)=O`: the half-inhibitory concentration (IC50) is 2.51 µM in test [1], 0.398 µM in [7] and 0.316 µM in [11].
Consider `c1cc(-c2nnc(CN3CCOCC3)o2)c2cn[nH]c2c1`, for which the IC50 in test [1] is over 50.1 µM; in test [3] it was 158 µM; in test [7], over 50.1 µM; in test [11], 25.1 µM.
Consider `c1cc(-c2ccc3ccncc3c2)c2cc[nH]c2c1`, for which the IC50 was 15.8 µM in test [1], 3.98 µM in test [3], over 31.6 µM in test [7] and 15.8 µM in test [11].
